For assay [1], the target named is T1, m2 mAChR-G∀i1∃1(2-GDP complex (Sus scrofa, UniProt P06199)).
T1 construct: made in house
Nature of the assay: 3H-NMS binding assay by the method of Rinken and Haga.

Assay [2] concerns the target T2, m2 mAChR (Sus scrofa, UniProt P06199).
T2 construct: made in house
T2 sequence (P06199 1-466): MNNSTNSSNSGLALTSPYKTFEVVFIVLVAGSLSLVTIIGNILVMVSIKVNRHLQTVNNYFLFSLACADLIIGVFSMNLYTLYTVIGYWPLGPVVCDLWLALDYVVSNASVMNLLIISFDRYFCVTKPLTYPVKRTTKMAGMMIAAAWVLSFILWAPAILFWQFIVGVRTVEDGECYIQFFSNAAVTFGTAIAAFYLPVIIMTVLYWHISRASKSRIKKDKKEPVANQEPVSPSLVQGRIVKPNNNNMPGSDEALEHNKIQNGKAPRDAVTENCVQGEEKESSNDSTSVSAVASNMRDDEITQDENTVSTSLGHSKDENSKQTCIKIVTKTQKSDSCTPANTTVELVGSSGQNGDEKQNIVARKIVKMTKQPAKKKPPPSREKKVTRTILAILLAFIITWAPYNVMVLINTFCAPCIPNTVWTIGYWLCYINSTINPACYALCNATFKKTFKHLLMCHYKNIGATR
The assay is described as above. Particulars: m2 mAChR alone, without accessory protein; read-out: apparent Kd.

T1 sequence (P63096 whole entry partner, one chain of several): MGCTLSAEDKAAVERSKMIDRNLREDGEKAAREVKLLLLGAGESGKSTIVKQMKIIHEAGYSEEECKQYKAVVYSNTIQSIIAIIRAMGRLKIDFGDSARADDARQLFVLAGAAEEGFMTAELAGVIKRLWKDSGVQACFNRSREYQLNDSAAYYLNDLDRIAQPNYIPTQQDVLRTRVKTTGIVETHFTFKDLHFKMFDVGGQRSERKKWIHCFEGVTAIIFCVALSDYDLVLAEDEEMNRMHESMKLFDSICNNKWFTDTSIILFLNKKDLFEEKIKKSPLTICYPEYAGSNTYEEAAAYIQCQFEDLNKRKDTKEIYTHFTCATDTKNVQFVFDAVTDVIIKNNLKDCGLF
T1 sequence (P62873 whole entry partner, one chain of several): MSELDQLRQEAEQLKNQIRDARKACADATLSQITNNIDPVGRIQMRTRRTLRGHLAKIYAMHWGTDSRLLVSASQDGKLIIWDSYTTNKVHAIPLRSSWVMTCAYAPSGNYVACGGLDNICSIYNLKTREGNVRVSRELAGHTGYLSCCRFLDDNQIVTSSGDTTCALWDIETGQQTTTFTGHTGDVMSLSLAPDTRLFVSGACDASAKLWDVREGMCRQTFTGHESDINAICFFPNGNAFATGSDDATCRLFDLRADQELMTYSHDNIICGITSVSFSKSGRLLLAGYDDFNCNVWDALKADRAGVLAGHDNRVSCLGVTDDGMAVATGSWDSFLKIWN
T1 sequence (P59768 2-68 partner limits assumed, one chain of several): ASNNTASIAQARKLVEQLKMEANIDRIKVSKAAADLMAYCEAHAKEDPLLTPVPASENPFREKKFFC

Take `C[N+]1(C)[C@@H]2C[C@@H](OC(=O)[C@H](CO)c3ccccc3)C[C@H]1[C@@H]1O[C@@H]12` [3H-NMS, N-methylscapolamine]: the Kd in assay [1] (m2 mAChR with G protein heterotrimer-GDP as accessory protein) was determined as 432 nM; in assay [2], 0.17 nM. The “enhancement of affinity of m2 mAChR in presence of accessory protein complex” value in assay [1] (with vs without G∀i1∃1(2-GDP complex)) worked out at 5 fold.
